According to patent publication US5473039A, “Polypeptide analogs of apolipoprotein E, diagnostic systems and methods using the analogs” (The Scripps Research Institute, priority 1991, dated 1995):

What was measured:
[1] = system: Human peripheral blood mononuclear (PBM) cells; assay: PHA-stimulated PBM cell proliferation in serum-free CFBI medium; assay type: cell-based
Procedure: In these studies, human peripheral blood mononuclear (PBM) cells were isolated and assayed for phytohemagglutinin (PHA)-stimulated proliferation as described by Pepe et al (J. Immunol., 136:3716-3723, 1986) except that the cells were resuspended and cultured in a serum-free and protein-free CFBI medium as described by Shive et al, Proc. Natl. Acad. Sci. […] After 48 h the cultures were pulsed for 18 h with […] of [^3 H]-methylthymidine and harvested onto glass fiber filters. Radioactivity of the filters was counted in a Beckman liquid scintillation counter. […] The average biological activity of each polypeptide for inhibiting lymphocyte […] proliferation is shown in Table 6, and is expressed as an average specific activity, which is the peptide concentration that causes a 50% reduction in activity.

scavenger receptor = assay: 125I-aLDL degradation by PMA-stimulated THP-1 cells; assay type: cell-based, human
Procedure: To verify that the inhibition of LDL degradation was specific for the LDL receptor, the effect of the tandem peptide on scavenger receptor processing of acetylated LDL (aLDL) was tested.
THP-1 cells (5×10^5 in 1.0ml of DMEM medium per 16 mm culture dish) were stimulated with PMA (10^-7 M) for 4 days. LDL was acetylated (Hara, H. et al., Biochem. Biophys. Res. Comm., 146(2):802-808, 1987) and then radio-labeled as described in Example 8 to a specific activity of 300-500 cpm/ng resulting in ^125 I-aLDL that was greater than 99% precipitable by 10% TCA. The cells were washed with PBS and the assay performed in DMEM medium supplemented with 1% Nutridoma-HU plus 25 μg/ml of ^125 I-aLDL. After 5 hr at 37° C., the supernatants were removed from the wells and extracted with 10% TCA. The B/B0 ratios were analyzed as described above. The results are depicted in FIG. 1B.

LDL receptor = LDL receptor (Homo sapiens, UniProt P01130); assay: 125I-LDL degradation by unstimulated THP-1 cells; assay type: cell-based; parameters: In the undifferentiated state THP-1 cells express LDL receptors that are regulated by the lipoprotein content of the culture medium; host or cells: THP-1 cells (unstimulated)
Excerpt: THP-1 cells were acquired from American Type Culture Collection and cultured in serum-free RPMI-1640 medium supplemented with 1% Nutridoma-HU for 48 hr to upregulate the LDL receptors. LDL was isolated by ultracentrifugation and radiolabeled using the iodine monochloride method as described in Example 8 to a specific activity 200-300 cpm/ng. Greater than 99% of the ^125 I-LDL ligand was precipitable by 10% TCA. The peptides indicated in FIGS. 1A and 1B were synthesized, as described in Example 1, purified to >95% by high pressure liquid chromatography and the amino acid composition verified. All peptides were solubilized in PBS. "AI 74-105"is a control peptide derived from residues 74-105 of apolipoprotein AI, "Monomer" is p(141-155), "Tandem Peptide" is p(141-155)2, "LDL" is unlabelled LDL, and "aLDL" is acetylated LDL.
Binding and degradation of LDL was evaluated as the disappearance of acid soluble ^125 I-LDL radioactivity from the incubation over a 5-hour incubation at 37C. Various concentrations of unlabeled LDL or tandem apo E peptide were coincubated with the ^125 I-LDL to determine their effects on binding and degradation.
For assay, 5×10^5 THP-1 cells in 0.5ml DMEM were co-incubated in a 1.5ml microfuge tube with 2-5 μg/ml of ^125 I-LDL at 37° C. in the presence of various concentrations of competitors indicated in FIGS. 1A and 1B. After 5 hr the cells were pelleted at 5000 x g, the supernatants were removed and the supernatants were extracted with 10% TCA and counted to form a TCA soluble cpm. The results were expressed as B/Bo where B equals the total TCA soluble cpm in supernatant collected in the presence of LDL or peptide and Bo equals the total TCA soluble cpm in supernatant of phosphate buffered saline (PBS) treated control cells. Each point is the average of 4 replicates with standard error of the mean (SEM),10%.

Sequence of LDL receptor (P01130 22-860): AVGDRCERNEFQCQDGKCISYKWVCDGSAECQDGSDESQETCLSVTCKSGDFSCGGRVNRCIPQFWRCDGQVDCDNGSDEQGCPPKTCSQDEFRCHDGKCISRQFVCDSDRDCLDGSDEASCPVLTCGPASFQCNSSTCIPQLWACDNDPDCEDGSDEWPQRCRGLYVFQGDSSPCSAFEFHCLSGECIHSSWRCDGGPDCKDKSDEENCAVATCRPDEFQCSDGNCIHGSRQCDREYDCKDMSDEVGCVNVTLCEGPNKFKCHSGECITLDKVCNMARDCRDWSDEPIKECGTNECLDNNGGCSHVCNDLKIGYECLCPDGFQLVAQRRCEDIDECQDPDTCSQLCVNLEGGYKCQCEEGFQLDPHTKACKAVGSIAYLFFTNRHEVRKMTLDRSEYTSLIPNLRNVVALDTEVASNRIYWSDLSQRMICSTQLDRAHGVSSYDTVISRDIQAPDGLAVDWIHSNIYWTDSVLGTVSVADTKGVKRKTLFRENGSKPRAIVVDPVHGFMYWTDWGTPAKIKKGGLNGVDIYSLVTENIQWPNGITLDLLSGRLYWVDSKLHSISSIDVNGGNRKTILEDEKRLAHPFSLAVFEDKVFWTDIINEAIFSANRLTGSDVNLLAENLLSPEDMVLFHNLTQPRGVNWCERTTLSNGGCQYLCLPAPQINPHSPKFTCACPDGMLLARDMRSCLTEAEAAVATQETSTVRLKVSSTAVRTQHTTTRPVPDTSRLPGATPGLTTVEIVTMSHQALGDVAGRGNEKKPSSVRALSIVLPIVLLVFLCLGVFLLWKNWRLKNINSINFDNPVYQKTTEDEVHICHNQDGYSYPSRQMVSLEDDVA

Question: Which “biologic activity (inhibition of lymphocyte proliferation)” value [1] does the source give for CC(C)C[C@H](NC(=O)[C@H](CC(=O)O)NC(=O)[C@H](CC(=O)O)NC(=O)[C@H](C)NC(=O)[C@H](CC(=O)O)NC(=O)[C@H](CCCNC(=N)N)NC(=O)[C@H](CC(C)C)NC(=O)[C@H](CC(C)C)NC(=O)[C@H](CCCNC(=N)N)NC(=O)[C@H](CCCCN)NC(=O)[C@H](CCCNC(=N)N)NC(=O)[C@H](CC(C)C)NC(=O)[C@H](CCCCN)NC(=O)[C@H](CCCNC(=N)N)NC(=O)[C@H](CC(C)C)NC(=O)[C@H](CC(C)C)NC(=O)[C@H](CC(=O)O)NC(=O)[C@H](CC(=O)O)NC(=O)[C@H](C)NC(=O)[C@H](CC(=O)O)NC(=O)[C@H](CCCNC(=N)N)NC(=O)[C@H](CC(C)C)NC(=O)[C@H](CC(C)C)NC(=O)[C@H](CCCNC(=N)N)NC(=O)[C@H](CCCCN)NC(=O)[C@H](CCCNC(=N)N)NC(=O)[C@H](CC(C)C)NC(=O)[C@H](CCCCN)NC(=O)[C@H](CCCNC(=N)N)NC(=O)[C@@H](N)CC(C)C)C(=O)O [p(141-155)2] here?
Answer: loss of biologic activity

Question: What about the “peptide concentration above which uptake of tritiated thymidine / lymphocyte proliferation was inhibited” value [1] of the same molecule?
Answer: above 4 uM

Question: What about the IC50 ([1]; read-out: Average Specific Activity (peptide concentration that causes a 50% reduction in activity)) of the same molecule?
Answer: 4.8 ± 1.1 µM

Question: What about the “effect on 125I-aLDL degradation” value (scavenger receptor; listed as tandem apo E peptide) of the same molecule?
Answer: no effect

Question: And the “effect on 125I-aLDL degradation” value (scavenger receptor; listed as tandem peptide)?
Answer: Neither LDL or tandem peptide inhibited

Question: And the “molar excess compared with LDL required to achieve 50% inhibition of degradation” value (LDL receptor)?
Answer: ~200 fold

Question: What about the inhibition at 12.5 µM (LDL receptor; THP-1, 12.5 uM) of the same molecule?
Answer: 80%

Question: And the “effect on LDL degradation by THP-1 cells” value (LDL receptor; low concentrations of the tandem peptide)?
Answer: significant enhancement

Question: And the IC50 (LDL receptor; read-out: concentration inhibiting 125I-LDL degradation by 50%)?
Answer: 5 µM
